Patent publication US20260055141A1, “COMPOSITIONS AND METHODS FOR CONTROLLING FOOD INTAKE, ENERGY EXPENDITURE, AND BODY WEIGHT FOR THE TREATMENT OF OBESITY AND METABOLIC DISEASES” (The Trustees of the University of Pennsylvania, priority 2022, published 2026)
pKd: −log10 of the molar value. “And” between values parts separate entries of the source, which are not always exact repeats. Equal values may be shown once. Non-standard residues stand in square brackets, D forms with d. No end group written: not given here.

Tests used:
[1] = 4th ventricle intracerebroventricular injection, food intake and body weight in DIO rats; format: in vivo, rat; settings: for food intake compared to control: SU75-36 20, 100 or 200 μg, SU75-37 20 μg, 60% HFD, 1, 3, 6, 24 h
Protocol: Adult male Sprague-Dawley rats (Charles River) were individually housed under a 12 h-light: 12 h-dark cycle in a temperature and humidity-controlled satellite vivarium and had ad libitum access to water and chow (5001, LabDiet) or a 60% high fat diet (HFD): D12492, Research Diets) and when applicable had ad libitum access to kaolin pellets (K50001, Research Diets). Rats were exposed to kaolin for at least 5 days prior to measuring kaolin consumption in pica testing. Except for studies conducted in the bioDAQ, for all feeding studies rats were housed in hanging wire cages to allow for accurate measurement of food spillage. Experiments were conducted under the National Institutes for Health Guide for the Care and Use of Laboratory Animals and all procedures were approved by the Institutional Animal Care and Use Committee at the University of Pennsylvania.
For cannula implantation, rats were anesthetized by intraperitoneal injection of a mixture containing ketamine (90 mg/kg, Butler Animal Health Supply), xylazine (2.7 mg/kg, Anased), and acepromazine (0.64 mg/kg, Butler Animal Health Supply) (KAX) and then placed into a stereotaxic apparatus. Each rat was stereotaxically implanted with a guide cannula (26-ga, Plastics One) aimed at the fourth ventricle (guide cannula coordinates: on midline. 2.5 mm anterior to occipital suture, 5.2 mm ventral to skull; internal cannula aimed 7.2 mm ventral to skull) or the lateral ventricle (guide cannula coordinates: 1.5 mm lateral to midline, 0.9 mm posterior to bregma. 1.8 mm ventral to skull; internal cannula aimed 3.8 mm ventral to skull). For all cannulas, dummies (no projection beyond guide) were inserted in the guide cannula and left until infusions were performed. For all surgeries, rats received post-operative temperature support and analgesia was provided immediately following surgery and for two post-operative days (2 mg/kg meloxicam).
For all studies measuring food intake following drug treatment, central injections were given at a volume of 2 μL using a Hamilton syringe terminating in an injector tip extending 2.0 mm beyond the guide cannula. For acute treatment days, rats were food deprived for 2 hours before the dark cycle and injections were done immediately prior to the dark cycle onset. Food and kaolin intake was measured 1, 3, 6, and 24 hours after injections were completed and food crumbs were weighed and accounted for between each timepoint. Body weight was measured during injections and 24 hours after. Injection treatments were organized in a counterbalanced, within-subjects design and separated by ≥72 h. […]
Rats were weighed at the beginning of the experiment and 24 hours after administration of the GPR75 inhibitor. The weight change of each rat after 24 hours was then calculated. […]

[2] = biological target: T1, human GPR75 (372-540 aa region) (Homo sapiens, UniProt O95800); experiment: Surface Plasmon Resonance (SPR) binding at GPR75; settings: for Bmax ([Signal (RU)]): SPR fit; for pKd / ka (1/(M*s)) / kd: SPR; for kon: read-out: ka (1/(M*s))
T1 construct: human GPR75 (372-540 aa region); purchased antibodies-online.com ABIN5709609
Protocol: SU75-36 binding at the human GPR75 (372-540 aa region; available on the world wide web at antibodies-online.com cat #ABIN5709609) was measured via a Nicoya Open SPR instrument using His-tagged GPR75 bound to an NTA-coated gold sensor (Nicoya cat #SEN-AU-100-10-NTA, range=4.08-204 μM) using HBSS (in-house) at 20 μL/min flow rate. Data was fit via a global, one-to-one model using Nicoya OpenSPR software.

[3] = His-tagged GPR75 on NTA sensor, HBSS, global one-to-one fit

Substance	food intake compared to control [1]	Bmax ([Signal (RU)]) ([2]; curve at 4.9 μM peptide)	Bmax ([Signal (RU)]) ([2]; curve at 4.93 μM peptide)	Bmax ([Signal (RU)]) ([2]; curve at 12.3 μM peptide, listed as Drug37)	Bmax ([Signal (RU)]) ([2]; curve at 24.65 μM peptide)	Bmax ([Signal (RU)]) ([2]; curve at 49.3 μM peptide, listed as Drug37)	Bmax ([Signal (RU)]) ([2]; curve at 92.4 μM peptide)	Bmax ([Signal (RU)]) ([2]; curve at 123.23 μM peptide)	pKd [2, 3]	ka (1/(M*s)) ([2]; one-to-one model, global fit)	kd ([2]; one-to-one model, global fit)	kon [2]	food intake compared to any of the other groups ([1]; 200 μg, 60% HFD)	body weight change after 24 hours ([1]; any amount (20, 100, 200 μg), 60% HFD)	Bmax ([Signal (RU)]) ([2]; curves at 10.2-102 μM peptide)	pKd ([2]; Nicoya OpenSPR software, one-to-one model, global fit)	ka (1/(M*s)) ([2]; one-to-one model, global fit, listed as Drug 36)
TFTSDLSKYLEEEVREFIWLKNGGPSDVNTDRPGLLDLK-NH2 [SU75-37]	significant decrease in food intake	3.80 RU	3.57 RU	11.98 RU and 9.39 RU	8.98 RU	47.66 RU and 51.69 RU	67.67 RU	110.32 RU	4.62	592 M⁻¹ s⁻¹	0.0141 s⁻¹	592 M⁻¹ s⁻¹	–	–	–	–	–
H[dS]QGTFTSDLSKYLEEEVREFIWLKNGGPSDVNTDRPGLLDLK-NH2 [SU75-36]	significant decrease in food intake	–	–	–	–	–	–	–	5.11	–	0.00742 s⁻¹	956 M⁻¹ s⁻¹	further decrease	significant decrease in weight	69.54 RU	5.11	956 M⁻¹ s⁻¹
